Earlier results as cited in US20030027805A1, “Use of 1,4-androstadienedione as a method of increasing levels of the anabolic/androgenic steroid boldenone in humans” (priority 2000, published 2003).
Values joined by “and” are separate entries in the source; they are usually repeats but may differ in a detail not shown here. Identical values can stand only once.

Details: for excretion in 17-hydroxy form: urinary, after oral dosing, comparison reported in literature

Structure (SMILES) | excretion of 17beta-hydroxysteroid metabolites compared with 1-androstenedione (comparison by the same authors with later 1-androstenedione study) | total recovery of 17-OH steroids (human, two subjects, urine, within 24 hours after oral administration of 100 mg, boldenone conjugates plus other 17-beta hydroxysteroids) | urinary recovery of boldenone conjugates (human, two subjects, within 24 hours after oral administration of 100 mg) | excretion in 17-hydroxy form
C[C@]12C=CC(=O)C=C1CC[C@@H]1[C@@H]2CC[C@]2(C)C(=O)CC[C@@H]12 [androstadienedione, 1,4-androstadiene-3,17-dione] | far more | 18.4 % of the given dose and 21.2 % of the given dose | 7.1 % of the initial dosage and 11.1 % of the initial dosage | 
C[C@]12CCC(=O)C=C1CC[C@@H]1[C@@H]2CC[C@]2(C)C(=O)CC[C@@H]12 [androstenedione, reference compound] |  |  |  | only in very small amounts
C[C@]12CC[C@H]3[C@@H](CCC4=CC(=O)CC[C@@]43C)[C@@H]1CC[C@@H]2O [testosterone, reference compound] |  |  |  | only in very small amounts
